Test results as given in the supplement of paper PMC10307832.

How the values were obtained:
Assay in all cases: relative viability (nuclei count vs DMSO), 5 days (fraction); higher = more cells survive
Tipifarnib + Bortezomib = compound: Cn1cncc1[C@@](N)(c1ccc(Cl)cc1)c1ccc2c(c1)c(-c1cccc(Cl)c1)cc(=O)n2C [Tipifarnib] + CC(C)C[C@H](NC(=O)[C@H](Cc1ccccc1)NC(=O)c1cnccn1)B(O)O [Bortezomib] (partner 0.002 µM)
Outline: (§1)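 Relative viability equals treated-well nuclei counts divided by vehicle-well nuclei counts. Counts came from 4× images of lung cancer cell lines grown in 1536-well plates for 5 days after pin-tool dosing on the day after seeding. Dosing used one drug alone or a fixed anchor-drug dose plus five library-drug doses (not always all listed) in √10 steps, and values are medians of duplicate plates.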

Tipifarnib + Alpelisib = compound: Cn1cncc1[C@@](N)(c1ccc(Cl)cc1)c1ccc2c(c1)c(-c1cccc(Cl)c1)cc(=O)n2C [Tipifarnib] + Cc1nc(NC(=O)N2CCC[C@H]2C(N)=O)sc1-c1ccnc(C(C)(C)C(F)(F)F)c1 [Alpelisib] (partner 2 µM)
Outline: as §1

Tipifarnib + Pemetrexed = compound: Cn1cncc1[C@@](N)(c1ccc(Cl)cc1)c1ccc2c(c1)c(-c1cccc(Cl)c1)cc(=O)n2C [Tipifarnib] + Nc1nc2[nH]cc(CCc3ccc(C(=O)N[C@@H](CCC(=O)O)C(=O)O)cc3)c2c(=O)[nH]1 [Pemetrexed] (partner 0.2 µM)
Outline: as §1

Tipifarnib + Olaparib = compound: Cn1cncc1[C@@](N)(c1ccc(Cl)cc1)c1ccc2c(c1)c(-c1cccc(Cl)c1)cc(=O)n2C [Tipifarnib] + O=C(c1cc(Cc2n[nH]c(=O)c3ccccc23)ccc1F)N1CCN(C(=O)C2CC2)CC1 [Olaparib] (partner 8 µM)
Outline: as §1

Cell Line	relative viability (Tipifarnib + Bortezomib; first compound 0.01 µM)	relative viability (Tipifarnib + Bortezomib; first compound 0.03162 µM)	relative viability (Tipifarnib + Bortezomib; first compound 0.1 µM)	relative viability (Tipifarnib + Bortezomib; first compound 0.3162 µM)	relative viability (Tipifarnib + Bortezomib; first compound 1 µM)	relative viability (Tipifarnib + Alpelisib; first compound 0.01 µM)	relative viability (Tipifarnib + Alpelisib; first compound 0.03162 µM)	relative viability (Tipifarnib + Alpelisib; first compound 0.1 µM)	relative viability (Tipifarnib + Alpelisib; first compound 0.3162 µM)	relative viability (Tipifarnib + Alpelisib; first compound 1 µM)	relative viability (Tipifarnib + Pemetrexed; first compound 0.01 µM)	relative viability (Tipifarnib + Pemetrexed; first compound 0.03162 µM)	relative viability (Tipifarnib + Pemetrexed; first compound 0.1 µM)	relative viability (Tipifarnib + Pemetrexed; first compound 0.3162 µM)	relative viability (Tipifarnib + Pemetrexed; first compound 1 µM)	relative viability (Tipifarnib + Olaparib; first compound 0.01 µM)	relative viability (Tipifarnib + Olaparib; first compound 0.03162 µM)	relative viability (Tipifarnib + Olaparib; first compound 0.1 µM)	relative viability (Tipifarnib + Olaparib; first compound 0.3162 µM)	relative viability (Tipifarnib + Olaparib; first compound 1 µM)
HCC-827	0.975	0.955	0.858	0.68	0.68	1.04	1.03	0.767	0.626	0.667	0.273	0.32	0.286	0.25	0.275	0.68	0.693	0.545	0.443	0.478
HOP-62	1	0.188	0.222	0.275	0.281	1.31	0.824	0.377	0.281	0.325	0.233	0.297	0.276	0.208	0.222	0.337	0.395	0.205	0.193	0.2
LC-2-ad	0.984	0.486	0.491	0.443	0.185	0.829	0.54	0.375	0.411	0.321	0.273	0.271	0.283	0.265	0.275	0.69	0.667	0.666	0.533	0.515
LCLC-97TM1	0.317	0.582	0.404	0.33	0.117	0.218	0.181	0.2	0.17	0.173	0.169	0.208	0.192	0.16	0.144	0.447	0.245	0.315	0.229	0.239
LCLC-103H	1.06	0.79	0.973	0.832	0.581	0.949	0.964	0.924	0.792	0.768	0.517	0.45	0.49	0.49	0.507	0.81	0.759	0.785	0.708	0.739
LOU-NH91	0.436	0.42	0.558	0.534	0.457	0.706	0.702	0.644	0.545	0.583	0.347	0.409	0.412	0.408	0.459	0.929	0.904	0.857	0.802	0.824
LU99A	0.803	0.712	0.477	0.53	0.314	0.442	0.36	0.297	0.261	0.238	0.201	0.202	0.2	0.217	0.196	0.293	0.23	0.226	0.245	0.202
LXF-289	0.978	0.889	0.948	0.874	0.706	1.05	1.05	0.988	0.889	0.983	0.849	0.884	0.835	0.759	0.526	1.12	1.02	0.989	0.805	0.91
NCI-H23	1.27	0.751	0.636	0.36	0.25	0.717	0.791	0.517	0.454	0.372	0.714	0.602	0.588	0.466	0.242	0.318	0.241	0.33	0.266	0.21
NCI-H322M	1.27	1.32	1.18	1.05	0.947	0.765	0.816	0.767	0.741	0.658	0.605	0.681	0.68	0.641	0.625	0.825	0.772	0.884	0.774	0.91
NCI-H441	0.685	0.2	0.432	0.207	0.185	0.712	1.06	0.54	0.307	0.379	0.269	0.286	0.294	0.307	0.254	0.651	0.39	0.523	0.306	0.277
NCI-H460	0.957	0.605	0.369	0.248	0.036	0.572	0.527	0.198	0.115	0.0453	0.0634	0.0696	0.0701	0.06	0.0551	0.462	0.369	0.219	0.207	0.208
NCI-H520	0.506	0.203	0.636	0.246	0.173	1.11	0.823	0.845	0.458	0.471	0.726	0.652	0.574	0.511	0.528	0.351	0.348	0.318	0.293	0.273
NCI-H596	1.05	1.12	1.17	0.913	0.699	0.516	0.547	0.0161	0.436	0.356	0.488	0.492	0.482	0.528	0.514	0.667	0.693	0.65	0.574	0.593
NCI-H647	0.911	0.59	0.678	0.589	0.273	1.05	0.822	0.838	0.44	0.488	0.209	0.213	0.157	0.139	0.116	0.566	0.472	0.39	0.142	0.142
NCI-H650	0.781	0.36	0.697	0.539	0.346	1.07	0.988	0.827	0.661	0.6	1.02	0.917	0.846	0.626	0.36	0.543	0.394	0.376	0.334	0.303
